According to patent US20260226086A1, “COMPOUNDS AND COMPOSITIONS AS STAT3 DEGRADERS AND USES THEREOF” (REGENTS OF THE UNIVERSITY OF MICHIGAN, priority 2023, published 2026):

Columns and labels:
Format in all cases: cell-based
[1] = system: SUP-M2 cells; test: CellTiter-Glo 2.0 cell viability assay, SUP-M2; settings: SUP-M2, 96 h, 4 days
How it was run: (§1)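 IC50 derived by four-parameter nonlinear regression on triplicate luminescence data (CellTiter-Glo 2.0), normalised to untreated controls. Cells plated at 1000/well received serial compound dilutions for 4 days at 37 °C with 5% CO2.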

[2] = target: T1, STAT3 (Homo sapiens, UniProt P40763); test: HiBiT assay, STAT3 degradation in STAT3-HiBiT KI HeLa cells; settings: 24 h; for DC50: read-out: STAT3 Degradation (HeLa 24 h HiBit) DC50
T1 construct: This cell line is a clone created by using CRISPR-Cas9 to fuse HiBiT to the 3′ end of STAT3 in HeLa cells; host or cells: STAT3-HiBiT KI HeLa cell line (CRISPR-Cas9 knock-in clone)
How it was run: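 Luminescence of endogenous HiBiT-tagged STAT3 (C-terminal knock-in, HeLa) was measured with lytic Nano-Glo detection after 24 h exposure to serially diluted compounds at 37 °C. Cells plated at 20000/well; untreated cells served as control, and triplicate means were fit by four-parameter regression to give IC50.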

[3] = system: SU-DHL-1 cells; test: CellTiter-Glo 2.0 cell viability assay, SU-DHL-1; settings: Homo sapiens, 96 h, 4 days
How it was run: as §1

T1 sequence (P40763 whole entry): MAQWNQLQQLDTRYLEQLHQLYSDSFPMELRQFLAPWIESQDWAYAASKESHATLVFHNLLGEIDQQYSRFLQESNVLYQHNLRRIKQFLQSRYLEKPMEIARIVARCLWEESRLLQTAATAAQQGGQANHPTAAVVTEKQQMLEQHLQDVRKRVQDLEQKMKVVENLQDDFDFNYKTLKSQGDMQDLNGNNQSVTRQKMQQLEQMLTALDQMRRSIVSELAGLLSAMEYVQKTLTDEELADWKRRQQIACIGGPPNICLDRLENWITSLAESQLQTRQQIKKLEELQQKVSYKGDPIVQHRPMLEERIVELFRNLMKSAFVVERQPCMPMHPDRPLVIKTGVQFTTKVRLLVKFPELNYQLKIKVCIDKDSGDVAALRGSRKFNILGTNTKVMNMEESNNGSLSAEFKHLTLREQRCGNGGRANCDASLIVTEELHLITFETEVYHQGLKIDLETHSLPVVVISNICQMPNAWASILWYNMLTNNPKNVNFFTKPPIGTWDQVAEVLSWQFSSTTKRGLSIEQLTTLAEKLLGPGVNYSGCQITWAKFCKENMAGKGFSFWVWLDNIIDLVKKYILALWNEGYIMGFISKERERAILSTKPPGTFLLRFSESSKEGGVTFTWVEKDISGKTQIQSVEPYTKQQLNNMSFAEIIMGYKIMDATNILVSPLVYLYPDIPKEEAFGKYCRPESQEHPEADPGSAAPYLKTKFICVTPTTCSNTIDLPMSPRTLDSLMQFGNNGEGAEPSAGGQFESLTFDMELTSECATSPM

| SMILES | IC50 [1] [nM] | Dmax at 1 µM [2] [%] | DC50 [2] [nM] | IC50 [3] [nM] |
| --- | --- | --- | --- | --- |
| CC(=O)N1CC[C@H]2CC[C@@H](C(=O)N[C@@H](CCC(N)=O)COc3cccc(CCCCN4CCC([C@@H](C(=O)N5C[C@H](O)C[C@H]5C(=O)N[C@@H](C)c5ccc(-c6scnc6C)cc5)n5cc(C6CC6)nn5)CC4)c3Cl)N2C(=O)[C@@H](NC(=O)c2cc3cc(C(=O)P(=O)(O)O)ccc3[nH]2)C1 [Compound 38, (2-(((5S,8S,10aR)-3-acetyl-8-(((S)-5-amino-1-(2-chloro-3-(4-(4-((S)-1-(4-cyclopropyl-1H-1,2,3-triazol-1-yl)-2-((2S,4R)-4-hydroxy-2-(((S)-1-(4-(4-methylthiazol-5-yl)phenyl)ethyl)carbamoyl)pyrrolidin-1-yl)-2-oxoethyl)piperidin-1-yl)butyl)phenoxy)-5-oxopentan-2-yl)carbamoyl)-6-oxodecahydropyrrolo[1,2-a][1,5]diazocin-5-yl)carbamoyl)-1H-indole-5-carbonyl)phosphonic acid] | 10 to 100 | 60 to 80 | 100 to 1000 | > 1000 |
| CC(=O)N1CC[C@H]2CC[C@@H](C(=O)N[C@@H](CCC(N)=O)COc3cccc(CCCc4cn([C@H](C(=O)N5C[C@H](O)C[C@H]5C(=O)N[C@@H](CO)c5ccc(-c6scnc6C)cc5)C(C)(C)C)nn4)c3Cl)N2C(=O)[C@@H](NC(=O)c2cc3cc(C(=O)P(=O)(O)O)ccc3[nH]2)C1 [Compound 39, (2-(((5S,8S,10aR)-3-acetyl-8-(((S)-5-amino-1-(2-chloro-3-(3-(1-((S)-1-((2S,4R)-4-hydroxy-2-(((R)-2-hydroxy-1-(4-(4-methylthiazol-5-yl)phenyl)ethyl)carbamoyl)pyrrolidin-1-yl)-3,3-dimethyl-1-oxobutan-2-yl)-1H-1,2,3-triazol-4-yl)propyl)phenoxy)-5-oxopentan-2-yl)carbamoyl)-6-oxodecahydropyrrolo[1,2-a][1,5]diazocin-5-yl)carbamoyl)-1H-indole-5-carbonyl)phosphonic acid] | < 10 | > 80 | < 10 | < 10 |
| Cc1ncsc1-c1ccc([C@H](C)NC(=O)[C@@H]2C[C@@H](O)CN2C(=O)[C@@H](NC(=O)CC(=O)N2CC[C@H]3CC[C@@H](C(=O)N[C@@H](CCC(N)=O)C(=O)NC(c4ccccc4)c4ccccc4)N3C(=O)[C@@H](NC(=O)c3cc4cc(C(=O)P(=O)(O)O)ccc4[nH]3)C2)C(C)(C)C)cc1 [Compound 46, (2-(((5S,8S,10aR)-8-(((S)-5-amino-1-(benzhydrylamino)-1,5-dioxopentan-2-yl)carbamoyl)-3-(3-(((S)-1-((2S,4R)-4-hydroxy-2-(((S)-1-(4-(4-methylthiazol-5-yl)phenyl)ethyl)carbamoyl)pyrrolidin-1-yl)-3,3-dimethyl-1-oxobutan-2-yl)amino)-3-oxopropanoyl)-6-oxodecahydropyrrolo[1,2-a][1,5]diazocin-5-yl)carbamoyl)-1H-indole-5-carbonyl)phosphonic acid] | > 1000 |  | > 1000 | > 1000 |
| Cc1ncsc1-c1ccc([C@H](C)NC(=O)[C@@H]2C[C@@H](O)CN2C(=O)[C@@H](NC(=O)CCC(=O)N2CC[C@H]3CC[C@@H](C(=O)N[C@@H](CCC(N)=O)C(=O)NC(c4ccccc4)c4ccccc4)N3C(=O)[C@@H](NC(=O)c3cc4cc(C(=O)P(=O)(O)O)ccc4[nH]3)C2)C(C)(C)C)cc1 [Compound 47, (2-(((5S,8S,10aR)-8-(((S)-5-amino-1-(benzhydrylamino)-1,5-dioxopentan-2-yl)carbamoyl)-3-(4-(((S)-1-((2S,4R)-4-hydroxy-2-(((S)-1-(4-(4-methylthiazol-5-yl)phenyl)ethyl)carbamoyl)pyrrolidin-1-yl)-3,3-dimethyl-1-oxobutan-2-yl)amino)-4-oxobutanoyl)-6-oxodecahydropyrrolo[1,2-a][1,5]diazocin-5-yl)carbamoyl)-1H-indole-5-carbonyl)phosphonic acid] | 100 to 1000 |  | 100 to 1000 | 100 to 1000 |
| Cc1ncsc1-c1ccc([C@H](C)NC(=O)[C@@H]2C[C@@H](O)CN2C(=O)[C@@H](NC(=O)CCCC(=O)N2CC[C@H]3CC[C@@H](C(=O)N[C@@H](CCC(N)=O)C(=O)NC(c4ccccc4)c4ccccc4)N3C(=O)[C@@H](NC(=O)c3cc4cc(C(=O)P(=O)(O)O)ccc4[nH]3)C2)C(C)(C)C)cc1 [Compound 48, (2-(((5S,8S,10aR)-8-(((S)-5-amino-1-(benzhydrylamino)-1,5-dioxopentan-2-yl)carbamoyl)-3-(5-(((S)-1-((2S,4R)-4-hydroxy-2-(((S)-1-(4-(4-methylthiazol-5-yl)phenyl)ethyl)carbamoyl)pyrrolidin-1-yl)-3,3-dimethyl-1-oxobutan-2-yl)amino)-5-oxopentanoyl)-6-oxodecahydropyrrolo[1,2-a][1,5]diazocin-5-yl)carbamoyl)-1H-indole-5-carbonyl)phosphonic acid] | 10 to 100 |  | 10 to 100 | 10 to 100 |
| Cc1ncsc1-c1ccc([C@H](C)NC(=O)[C@@H]2C[C@@H](O)CN2C(=O)[C@@H](NC(=O)CCCCC(=O)N2CC[C@H]3CC[C@@H](C(=O)N[C@@H](CCC(N)=O)C(=O)NC(c4ccccc4)c4ccccc4)N3C(=O)[C@@H](NC(=O)c3cc4cc(C(=O)P(=O)(O)O)ccc4[nH]3)C2)C(C)(C)C)cc1 [Compound 49, (2-(((5S,8S,10aR)-8-(((S)-5-amino-1-(benzhydrylamino)-1,5-dioxopentan-2-yl)carbamoyl)-3-(6-(((S)-1-((2S,4R)-4-hydroxy-2-(((S)-1-(4-(4-methylthiazol-5-yl)phenyl)ethyl)carbamoyl)pyrrolidin-1-yl)-3,3-dimethyl-1-oxobutan-2-yl)amino)-6-oxohexanoyl)-6-oxodecahydropyrrolo[1,2-a][1,5]diazocin-5-yl)carbamoyl)-1H-indole-5-carbonyl)phosphonic acid] | 10 to 100 |  | 10 to 100 | 10 to 100 |
| Cc1ncsc1-c1ccc([C@H](C)NC(=O)[C@@H]2C[C@@H](O)CN2C(=O)[C@@H](NC(=O)CCCCCC(=O)N2CC[C@H]3CC[C@@H](C(=O)N[C@@H](CCC(N)=O)C(=O)NC(c4ccccc4)c4ccccc4)N3C(=O)[C@@H](NC(=O)c3cc4cc(C(=O)P(=O)(O)O)ccc4[nH]3)C2)C(C)(C)C)cc1 [Compound 50, (2-(((5S,8S,10aR)-8-(((S)-5-amino-1-(benzhydrylamino)-1,5-dioxopentan-2-yl)carbamoyl)-3-(7-(((S)-1-((2S,4R)-4-hydroxy-2-(((S)-1-(4-(4-methylthiazol-5-yl)phenyl)ethyl)carbamoyl)pyrrolidin-1-yl)-3,3-dimethyl-1-oxobutan-2-yl)amino)-7-oxoheptanoyl)-6-oxodecahydropyrrolo[1,2-a][1,5]diazocin-5-yl)carbamoyl)-1H-indole-5-carbonyl)phosphonic acid] | 10 to 100 |  | 100 to 1000 | 10 to 100 |
| Cc1ncsc1-c1ccc([C@H](C)NC(=O)[C@@H]2C[C@@H](O)CN2C(=O)[C@@H](NC(=O)CCCCCCC(=O)N2CC[C@H]3CC[C@@H](C(=O)N[C@@H](CCC(N)=O)C(=O)NC(c4ccccc4)c4ccccc4)N3C(=O)[C@@H](NC(=O)c3cc4cc(C(=O)P(=O)(O)O)ccc4[nH]3)C2)C(C)(C)C)cc1 [Compound 51, (2-(((5S,8S,10aR)-8-(((S)-5-amino-1-(benzhydrylamino)-1,5-dioxopentan-2-yl)carbamoyl)-3-(8-(((S)-1-((2S,4R)-4-hydroxy-2-(((S)-1-(4-(4-methylthiazol-5-yl)phenyl)ethyl)carbamoyl)pyrrolidin-1-yl)-3,3-dimethyl-1-oxobutan-2-yl)amino)-8-oxooctanoyl)-6-oxodecahydropyrrolo[1,2-a][1,5]diazocin-5-yl)carbamoyl)-1H-indole-5-carbonyl)phosphonic acid] | 100 to 1000 |  | 100 to 1000 | 100 to 1000 |
| Cc1ncsc1-c1ccc([C@H](C)NC(=O)[C@@H]2C[C@@H](O)CN2C(=O)[C@@H](NC(=O)CCCCCCCC(=O)N2CC[C@H]3CC[C@@H](C(=O)N[C@@H](CCC(N)=O)C(=O)NC(c4ccccc4)c4ccccc4)N3C(=O)[C@@H](NC(=O)c3cc4cc(C(=O)P(=O)(O)O)ccc4[nH]3)C2)C(C)(C)C)cc1 [Compound 52, (2-(((5S,8S,10aR)-8-(((S)-5-amino-1-(benzhydrylamino)-1,5-dioxopentan-2-yl)carbamoyl)-3-(9-(((S)-1-((2S,4R)-4-hydroxy-2-(((S)-1-(4-(4-methylthiazol-5-yl)phenyl)ethyl)carbamoyl)pyrrolidin-1-yl)-3,3-dimethyl-1-oxobutan-2-yl)amino)-9-oxononanoyl)-6-oxodecahydropyrrolo[1,2-a][1,5]diazocin-5-yl)carbamoyl)-1H-indole-5-carbonyl)phosphonic acid] | 100 to 1000 |  | 100 to 1000 | 100 to 1000 |
| Cc1ncsc1-c1ccc([C@H](C)NC(=O)[C@@H]2C[C@@H](O)CN2C(=O)[C@@H](NC(=O)CCCCCCCCC(=O)N2CC[C@H]3CC[C@@H](C(=O)N[C@@H](CCC(N)=O)C(=O)NC(c4ccccc4)c4ccccc4)N3C(=O)[C@@H](NC(=O)c3cc4cc(C(=O)P(=O)(O)O)ccc4[nH]3)C2)C(C)(C)C)cc1 [Compound 53, (2-(((5S,8S,10aR)-8-(((S)-5-amino-1-(benzhydrylamino)-1,5-dioxopentan-2-yl)carbamoyl)-3-(10-(((S)-1-((2S,4R)-4-hydroxy-2-(((S)-1-(4-(4-methylthiazol-5-yl)phenyl)ethyl)carbamoyl)pyrrolidin-1-yl)-3,3-dimethyl-1-oxobutan-2-yl)amino)-10-oxodecanoyl)-6-oxodecahydropyrrolo[1,2-a][1,5]diazocin-5-yl)carbamoyl)-1H-indole-5-carbonyl)phosphonic acid] | 100 to 1000 |  | 100 to 1000 | 100 to 1000 |
